{
  "source": "patent US6747135B1",
  "about": "“Fluorescent dye binding peptides” (The Board of Trustees for the Leland Stanford Junior …, priority 1998, dated 2004)",
  "key": {"[1]": {"test": "Dye binding to peptide-coated cobalt Sepharose beads, fluorescence microscopy", "settings": "Fluorescein"}, "[2]": {"test": "Dye binding to peptide-coated cobalt Sepharose beads, fluorescence microscopy", "settings": "0.5 μM Texas Red in TBS, 1 hr, RT", "description": "FIG. 6. Texas Red-specific peptide PepTR401 (Panel A), PepTRS311 (Panel B), PepTR406 (Panel C) and nonspecific PepControl (Panel D) (see peptide sequences in Table 4) were bound via His6 tag to cobalt ion-containing Sepharose beads. The peptide coated beats were washed and incubated with 0.5 micromolar Texas Red in TBS for 1 hour at room temperature followed by several washings of beads in order to remove unbound dye. Fluorescent and nonflourescent control beads were photographed on fluorescent microscope Axiophot (Zeiss) using Rhodamine Red/Texas Red filter with the same time exposure for every sample. All binding experiments were accomplished in three parallels and results of a single experiments are shown.\nPeptides were bound to cobalt ion-coated Sepharose beads and the resultant peptide-coated beads were incubated with corresponding fluorophore dyes, washed, and visualized for dye binding. The same amounts of Texas Red-specific peptides PepTR401, PepTRS311, PepTR406 as well as nonspecific peptide PepControl (see Table 4) were bound via His6 tag to the TALON Metal Affinity Resin (Clontech) in TBS buffer essentially as described by manufacturer's protocol. Beads (5 μl) were washed twice with 0.5 ml TBS to remove unbound peptide and incubated with 0.5 μM Texas Red in 40 μl of TBS buffer for 1 hr at RT. Finally, the beads were washed three times with 0.3 ml TBS to remove unbound dye. Fluorescent and nonfluorescent control beads were photographed with 10-fold magnification on fluorescent microscope Axiophot (Zeiss) using Rhodamine Red/Texas Red filter with 5″ exposure."}, "[3]": {"test": "Dye binding to peptide-coated cobalt Sepharose beads, fluorescence microscopy", "settings": "Oregon Green 514"}, "[4]": {"test": "Peptide-Texas Red binding in solution, excitation and emission spectra", "settings": "10 μM peptide, 50 nM Texas Red, TBS, 1 hr RT", "description": "FIGS. 5A and 5B. Peptide—Texas Red binding. Excitation and emission spectra. Peptides at the noted concentrations were incubated with Texas Red (50 nM), or without, in 0.6 ml of TBS for 1 hr at room temperature (RT). Samples were scanned on a spectrofluorimeter (SPEX Fluoromax (Jobin Yvon-SPEX Instruments Co.)). Excitation and excitation/emission peak shifts for PepTR401(10 μM)/Texas Red and PepTRS311 (10 μM)/Texas Red complexes, respectively (A), were reproducible in three independent experiments. The results of a single experiment are presented.\n(§1) The above test only checks for bound dye that remains fluorescent at the wavelengths tested. Binding of fluorophore dyes to specific peptides might result in changes in the fluorescence spectra of bound dye versus the spectra of free dye. Or, one might observe an increase or quenching of fluorescence. We mixed concentrated peptide with 50 nM of the corresponding dye in solution and determined the excitation and emission spectra of the resulting mixture.\nWe attempted with these findings to obtain an affinity measurement for the higher affinity TRS311 peptide. Peptides in different concentrations (1.3-20 μM) were incubated with Texas Red (50 nM) in 0.6 ml of TBS buffer for 1 hr at RT. Excitation and emission spectra of samples were obtained by using spectrofluorimeter SPEX Fluoromax (Jobin Yvon-SPEX Instruments Co.) and DataMax software package. Peak positions were automatically calculated by software. List mode data was saved for other analyses."}, "[5]": {"test": "Peptide-Fluorescein binding in solution, excitation and emission spectra", "settings": "peptide with 50 nM Fluorescein", "description": "as §1"}},
  "data": [
    {"sequence": "KHVOYWTOMFYSGGGSAETVGGGHHHHHH (KHVQYWTQMFYSGGGSAETVGGGHHHHHH; fluorette) [PepTR401]", "values": [
      {"measurement": "dye binding to peptide-coated beads", "setting": "[1]", "value": "bound to neither Oregon Green 514 nor Fluorescein"},
      {"measurement": "dye binding to peptide-coated beads", "setting": "[2]", "value": "significant binding"},
      {"measurement": "dye binding to peptide-coated beads", "setting": "[3]", "value": "bound to neither Oregon Green 514 nor Fluorescein"},
      {"measurement": "peak emission shift", "setting": "[4]", "value": "no emission shift change"},
      {"measurement": "peak excitation shift", "setting": "[4]", "value": "+1.9 nm"},
      {"measurement": "shift in Fluorescein excitation or emission spectra", "setting": "[5]", "value": "no shift"}
    ]}
  ]
}
